The values that follow come from ChEMBL document CHEMBL5380835, “Discovery of Clinically Used Octenidine as NRAS Repressor That Effectively Inhibits NRAS-Mutant Melanoma” (J Med Chem, 2023).

The source made the active and inactive calls. The calls are words filed in the database; no cut-off is given here.

For experiment [1], the system named is SK-MEL-2. The experiment can be described thus: Synergistic cytotoxicity against human SK-MEL-2 cells expressing NRAS mutant assessed as combination index measured for 48 hrs in presence of MK2206 by MTT assay. It is filed as functional.
Experiment [2] has as its system SK-MEL-2. The experiment can be described thus: Antitumor activity against human SK-MEL-2 cells xenografted in BALB/c nude mouse assessed as tumor growth inhibition at 5 mg/kg/day, ip administered for 30 days relative to control. It is filed as functional. The following applies: SK-MEL-2, 720 h, time 30 day, read-out: TGI. For orientation: A xenograft is tissue or cells of one species grown in another, often human tumour cells in immunodeficient mice.

Experiment [3] deals with SK-MEL-2. The experiment can be described thus: Antiproliferative activity against human SK-MEL-2 cells assessed as inhibition of colony formation at 1.5 uM measured after 10 days by crystal violet staining based assay. The following applies: time 10.0 day. It is filed as functional, cell-based.
The subject of experiment [4] is SK-MEL-2. The experiment can be described thus: Antitumor activity against human SK-MEL-2 cells xenografted in BALB/c nude mouse assessed as reduction in tumor weight at 5 mg/kg/day, ip administered for 30 days by electronic caliper method. It is filed as functional, organism-based. Particulars: time 30.0 day.
The subject of experiment [5] is SK-MEL-2. The experiment can be described thus: Synergistic cytotoxicity against human SK-MEL-2 cells expressing NRAS mutant assessed as combination index measured for 48 hrs in presence of Rapamycin by MTT assay. It is filed as functional. A general note: Tetrazolium dyes change colour on reduction, which living cells bring about.
The subject of experiment [6] is SK-MEL-2. The experiment can be described thus: Antitumor activity against human SK-MEL-2 cells xenografted in BALB/c nude mouse assessed as tumor growth inhibition at 5 mg/kg/day, ip by electronic caliper method. The following applies: time 30.0 day, TDE = time-dependent effect. It is filed as functional, organism-based.
The test system of experiment [7] is SK-MEL-2. The experiment can be described thus: Antitumor activity against human SK-MEL-2 cells xenografted in BALB/c nude mouse assessed as T/C ratio at 5 mg/kg/day, ip administered for 30 days relative to control. The following applies: time 30 day. It is filed as functional.

As to `Cn1cnc2c(F)c(Nc3ccc(Br)cc3F)c(C(=O)NOCCO)cc21` [BINIMETINIB], the CI with SK-MEL-2 [1] and in the experiment on SK-MEL-2 [5] was 0.5 each time. For the same molecule, the inhibition in vivo at 5 mg/kg/day in the experiment on SK-MEL-2 [2] turned out to be 70.4%. Moreover, the inhibition result in the experiment on SK-MEL-2 [3] is “Active”. For the same molecule, the outcome in the experiment on SK-MEL-2 [4] was Active. In the experiment on SK-MEL-2 [6], the Activity entry is “Tde”. In addition, the T/C with SK-MEL-2 [7] was found to be 24.8%.

In general, T/C refers to the ratio of treated to control.
